The values below come from publication PMC7112222, “Investigation of pyrimidine nucleoside analogues as chemical probes to assess compound effects on the proliferation of Trypanosoma cruzi intracellular parasites” (PLoS Neglected Tropical Diseases, 2020).

“And” between values parts separate entries of the source, which are not always exact repeats. Identical values can stand only once. Like-named read-outs stand apart in the source and are kept apart here.

As usually defined, the IC50 is the concentration at which inhibition is half-maximal. Broadly, the inhibition is the drop in the measured response relative to a control, in per cent.

Data set [1] has as its system T. cruzi intracellular amastigotes. The data set is described as follows: Image-based assay of the number of T. cruzi infected cells (intracellular amastigotes in 3T3 host cells). Particulars: 2 and 4 hour exposures; 73 μM. The format is cell-based, Trypanosoma cruzi.
For data set [2], the system named is HEK293 cells. Particulars: read-out: IC50 value, cytotoxicity against HEK293 cells; 72 hours exposure; cited from earlier work.
A further data set concerns L. donovani. Also noted: method as in PMID 27021313. Particulars: 72 hours incubation; cited from earlier work.
The test system of data set [3] is T. cruzi intracellular amastigotes. Briefly: Image-based assay of the number of T. cruzi infected cells (intracellular amastigotes in 3T3 host cells). The format is cell-based, Trypanosoma cruzi. Particulars: for IC50: highest test concentration 183 μM.
For data set [4], the system named is HEK293 cells. The data set is described as follows: Redox-based assay to assess HEK293 viability. The class given is cell-based, human. Particulars: Homo sapiens, HEK293, 48 hours exposure. Here is the method:
To determine the effect of the nucleoside analogues against a replicating mammalian cell line, analogues were tested against HEK293 cells, utilising a REDOX-based metabolic assay to assess cell viability as previously described. […] Experiments were performed over two biological replicates.

Another data set deals with T. cruzi amastigote DNA. The data set is described as follows: Incorporation of pyrimidine nucleoside analogues into T. cruzi amastigote DNA (click chemistry, colocalisation with Hoechst). The class given is cell-based, Trypanosoma cruzi.

Turning to `C#Cc1cn([C@H]2C[C@H](O)[C@@H](CO)O2)c(=O)[nH]c1=O` [EdU, 5-ethynyl-2′-deoxy-uridine], the “activity against T. cruzi amastigote growth after short exposure” value in data set [1] is reported as “less than 20%”. For the same compound, the half-inhibitory concentration (IC50) with HEK293 cells [2] was 60 ± 43 nM; in data set [3] (Trypanosoma cruzi, 24 hours exposure, read-out: T. cruzi 24 IC50 value), 73 ± 49 nM; in data set [3] (Trypanosoma cruzi, 48 hours incubation, compound wash off, further 72 hours without compound, read-out: T. cruzi Wash off IC50 value) it was 420 ± 61 nM; in data set [3] (Trypanosoma cruzi, 48 hours incubation, read-out: T. cruzi 48 IC50 value) it was 40 ± 25 nM; in the data set on HEK293 cells [4] (highest test concentration 87 μM, EdU value estimated, relative to Emax plateau of 57%), 670 ± 260 nM. For the same compound, the “toxicity toward L. donovani” value in the data set on L. donovani is on record as “lack of toxicity”. In addition, the “SI (selectivity index to T. cruzi intracellular amastigotes in relation to HEK293 cells)” value in data set [3] (48 hours exposure) is on record as 17. In data set [3] (Trypanosoma cruzi, 48 h, 0.018 μM, 48 hours, read-out: inhibition of T. cruzi growth), the inhibition at 0.018 µM turned out to be 63 ± 19%. Moreover, in data set [3] (Trypanosoma cruzi, 48 h, 0.037 μM, 48 hours, read-out: inhibition of T. cruzi growth), the inhibition at 0.037 µM was 51 ± 13%. The Emax in data set [3] (Trypanosoma cruzi, 24 hours exposure, read-out: T. cruzi 24 relative Emax (in brackets) (converted)) is 83%; in data set [3] (Trypanosoma cruzi, 48 hours incubation, wash off, further 72 hours without compound, read-out: T. cruzi Wash off relative Emax (in brackets) (converted)), 99%; in data set [3] (Trypanosoma cruzi, 48 hours incubation, read-out: T. cruzi 48 relative Emax (in brackets) (converted)), 98%; in the data set on HEK293 cells [4] (read-out: plateau of activity (Emax) against HEK293 cells) it was 57%. Further, the “% incorporation into T. cruzi DNA” value in the data set with T. cruzi amastigote DNA (2 hours, 1.8 μM) was 75 ± 3.6%. In addition, in the data set with T. cruzi amastigote DNA (4 hours, 0.37 μM), the “% of Hoechst defined T. cruzi cells with incorporation” value turned out to be 89 ± 4.8%. Moreover, in the data set with T. cruzi amastigote DNA (48 hours exposure, 0.018 μM), the “% of cells with incorporation” value is given as 72 ± 1.09%. Further, the “% of cells containing Alexa Fluor 488 labelled DNA (incorporation)” value in the data set with T. cruzi amastigote DNA (48 hours exposure, 0.037 μM) was 93.1 ± 2.8%. Moreover, the highest incorporation in the data set on T. cruzi amastigote DNA (48 hours exposure, 0.073 μM) is 94 ± 2.5% and 94%. For the same compound, the “incorporation into T. cruzi DNA following 48 hours incubation (in words)” value with T. cruzi amastigote DNA (48 hours incubation) is “incorporated”.
